According to patent US12473305B2, “Pyrazole boronic acid compound, pharmaceutical composition containing same, and uses thereof” (BEIJING SONGRUN PHARMACEUTICAL TECHNOLOGY CO., LTD., priority 2020, dated 2025):
Values belong to the molecule of their own block, whether it stands above or below them.

Legend:
[1] = system: liver cancer cell line HepG2; assay: CellTiter-Glo tumor cell proliferation, HepG2; format: cell-based, human; details: Homo sapiens, HepG2, 72 h
Experimental: The effect of compounds on tumor cell proliferation was detected by CellTiter-Glo method. Human melanoma cell line A375, non-small cell lung cancer cell line A549, human lung adenocarcinoma cell line H1299, colorectal cancer cell line HCT116, liver cancer cell line HepG2 and gastric cancer cell line MGC80-3 were cultured in vitro. The cells were collected after growing to the logarithmic growth phase, centrifuged at 1000 rpm for 5 min, and suspended in an appropriate amount of medium after discarding the supernatant, and the cell concentration was adjusted to 2×10^4/mL. The cell suspension was inoculated onto the 384-well cell culture plate, with 50 μL per well. After being cultured in a cell incubator (37° C., 5% CO2) for 24 h, 5 μL of drug diluted by the cell culture medium was added into each well for the treatment group. Each drug was provided in triplicate. After 72 h incubation in the incubator, 20 μL of CellTiter-Glo was added into each well, and the relative luminescence unit (RLU) was measured with Multimode Microplate Reader Varioskan Flash (Thermo Scientific, USA) after placed at 37° C. for 20 min, and compared with the RLU of the control group. SigmaPlot 10.0 software was used to calculate the inhibition rate and IC50 value.

[2] = system: human multiple myeloma RPMI 8226; assay: Pharmacodynamic study, RPMI 8226 subcutaneous xenograft; format: in vivo, female NOD/SCID mice; details: BIW, tail vein, day of the last administration; for Tumor volume (x ± S): in mm³ (unit assumed)
Experimental: The anti-tumor effect in vivo was studied by using the tumor animal model obtained by subcutaneous xenotransplantation of cell lines into female NOD/SCID mice (purchased from Sipeifu Biotechnology Co., Ltd.).
RPMI 8226 cells were subcutaneously inoculated into NOD/SCID mice, and human multiple myeloma subcutaneously transplanted tumor model was successfully established 9 days after inoculating the cells. The test was divided into vehicle (0.3 mL DMSO, 0.27 mL Tween-80, 2.43 mL normal saline) control group, compound 30 low-dose group (20 mg/kg), compound 30 medium-dose group (30 mg/kg), compound 30 high-dose group (40 mg/kg), compound 39 low-dose group (5 mg/kg), compound 39 medium-dose group (10 mg/kg), and compound 39 high-dose group (15 mg/kg), and bortezomib (API purchased from Yangtze River Pharmaceutical) was used as the positive control group (0.5 mg/kg); 5 tumor-bearing mice established above in each group were administered by tail vein twice a week for nine times in total. The long diameter a (mm) of the tumor and the short diameter b (mm) of the tumor perpendicular to the long diameter were measured with digital electronic caliper twice a week. The calculation formula of tumor volume was: TV=ab^2/2; and the calculation formula of relative tumor volume was: RTV=Vt/Vo, Vo was the tumor volume measured when the mice in each group were divided into cages and administered for the first time (d1), and Vt was the tumor volume measured at the last administration. The animals were sacrificed 31 days (d22) after inoculation of RPMI 8226 cells, and weighed. The tumor mass was dissected and weighed, and the tumor inhibition rate was calculated according to the following formula: […]

[3] = molecular target: T1, 20S proteasome β5 subunit (Homo sapiens, UniProt P20618+P28074); assay: Proteasome-Glo Cell-Based assay in K562 cells, β5 subunit; details: 2 h incubation
T1 construct: endogenous in cells; host or cells: K562
Experimental: (§1) Proteasome-Glo™ Cell-Based assay kit (Promega, USA) was used to determine the activity of the target compound against the 20S proteasome. Human chronic myeloid leukemia cell line (K562, 6000 cells/well) was inoculated into the 384 well plate in 20 μL/well. The cells were then equilibrated at 37° C., 5% CO2 for 2 hours. Each 384 well plate was set with the mock group and treatment group, and each well of the treatment group was added with 5 μL of the compound solution with the final concentration of 40 μM, 13.3 μM, 4.44 μM, 1.48 μM, 0.49 μM, 0.16 μM, 0.055 μM, 0.0183 μM, […], 0.0061 μM. The cells was incubated with the drugs for 2 hours at 37° C., 5% CO2 before adding 25 μL of corresponding Proteasome-Glo™ Cell-Based reagent per well. The relative luminescence unit (RLU) was measured by using Multimode Microplate Reader Varioskan Flash (Thermo Scientific, USA) after 15 min and compared with the RLU of the control group. SigmaPlot 10.0 software was used to calculate IC50 value.

[4] = system: colorectal cancer cell line HCT116; assay: CellTiter-Glo tumor cell proliferation, HCT116; format: cell-based, human; details: Homo sapiens, HCT-116; CellTiter-Glo, 72 h
Method in brief: (§2)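 Cells seeded at 2×10^4/mL, grown 24 h at 37° C, 5% CO2, then treated in triplicate with medium-diluted compound for 72 h. CellTiter-Glo luminescence read after 20 min at 37° C; inhibition versus untreated control RLU, IC50 calculated.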

A375 = assay: MTT antitumor spectrum, A375; format: cell-based; details: Homo sapiens, A-375, 72 h
Experimental: (§3) The activity of compound 30 was evaluated by MTT method against seven tumor cell models, A549, A375, HCT116, MDA-MB-231, HepG2, PC3 and MCF-7. All cells used in the study were prepared at a concentration of 3.5×10^3 cells/mL, and each […] cell suspension was inoculated on a 96-well microtiter plate for 24 hours (37° C., 5% CO2). Then different concentrations of compound 30 were added, incubated for 72 hours; and for the control group, equivalent concentrations of DMSO (final concentration 0.5%) were added. The number of viable cells was measured by MTT (3-(4,5-dimethylthiazol-2-yl)-diphenyl tetrazolium bromide) method, and the OD value at 492/620 nm was recorded. The IC50 value was calculated by Prism-Graphpad software based on the results of triplicate experiments.

HCT116 = assay: MTT antitumor spectrum, HCT116; format: cell-based; details: Homo sapiens, HCT-116, 72 h
Experimental: as §3

[5] = molecular target: T2, 20S proteasome β1 subunit (Homo sapiens, UniProt P28072+Q99436); assay: Proteasome-Glo Cell-Based assay in K562 cells, β1 subunit; details: 2 h incubation
T2 construct: endogenous in cells; host or cells: K562
Experimental: as §1

A549 = assay: MTT antitumor spectrum, A549; format: cell-based; details: Homo sapiens, 72 h
Experimental: as §3

[6] = system: Human melanoma cell line A375; assay: CellTiter-Glo tumor cell proliferation, A375; format: cell-based; details: Homo sapiens, A-375; CellTiter-Glo, 72 h
Method in brief: as §2

SMILES: CC(C)C[C@H](NC(=O)Cn1nc(-c2cccc(OCCN3CCN(c4ccccc4)CC3)c2)cc1-c1ccccc1)B(O)O.Cl [Compound 39, (R)-(3-methyl-1-(2-(5-phenyl-3-(3-(2-(4-phenylpiperazin-1-yl)ethoxy)phenyl)-1H-pyrazol-1-yl)acetamido)butyl)boronic acid hydrochloride]
- IC50 [1]: 0.054 µM
- Relative tumor volume (x ± S) ([2]; 5 mg/kg): 1.51 ± 0.38
- T/C (%) ([2]; 5 mg/kg): 16.18%
- TGI (%) ([2]; 5 mg/kg): 83.82%
- Tumor volume (x ± S) ([2]; 5 mg/kg): 177.55 ± 51.28
- Relative tumor volume (x ± S) ([2]; 10 mg/kg): 0.62 ± 0.28
- T/C (%) ([2]; 10 mg/kg): 6.65%
- TGI (%) ([2]; 10 mg/kg): 93.35%
- Tumor volume (x ± S) ([2]; 10 mg/kg): 75.06 ± 19.64
- Relative tumor volume (x ± S) ([2]; 15 mg/kg): 0.36 ± 0.02
- T/C (%) ([2]; 15 mg/kg): 3.86%
- TGI (%) ([2]; 15 mg/kg): 96.14%
- Tumor volume (x ± S) ([2]; 15 mg/kg): 21.79 ± 3.50
- IC50 [3]: 0.2 µM
- IC50 [4]: 0.084 µM

- IC50 (A375): 0.82 µM
- IC50 (HCT116): 0.63 µM
- IC50 [5]: 2.04 µM
- IC50 (A549): 3.05 µM
- IC50 [6]: 0.822 µM
- IC50 [3]: 0.4 µM
- IC50 [4]: 0.63 µM
SMILES: CC(C)C[C@H](NC(=O)Cn1nc(-c2cccc(OCCN3CCOCC3)c2)cc1-c1ccccc1)B(O)O.Cl [Compound 30, (R)-(3-methyl-1-(2-(3-(3-(2-morpholinoethoxy)phenyl)-5-phenyl-1H-pyrazol-1-yl)-acetamido)butyl)boronic acid hydrochloride]
- Relative tumor volume (x ± S) ([2]; 20 mg/kg): 2.57 ± 0.61
- T/C (%) ([2]; 20 mg/kg): 27.55%
- TGI (%) ([2]; 20 mg/kg): 72.45%
- Tumor volume (x ± S) ([2]; 20 mg/kg): 267.27 ± 77.46
- Relative tumor volume (x ± S) ([2]; 30 mg/kg): 1.63 ± 0.32
- T/C (%) ([2]; 30 mg/kg): 17.47%
- TGI (%) ([2]; 30 mg/kg): 82.53%
- Tumor volume (x ± S) ([2]; 30 mg/kg): 147.56 ± 33.02
- Relative tumor volume (x ± S) ([2]; 40 mg/kg): 0.74 ± 0.12
- T/C (%) ([2]; 40 mg/kg): 7.93%
- TGI (%) ([2]; 40 mg/kg): 92.07%
- Tumor volume (x ± S) ([2]; 40 mg/kg): 72.06 ± 13.62
